From patent US20240216401A1, “COMBINATION THERAPY BY USING AKR1C3-ACTIVATED COMPOUND WITH IMMUNE CHECKPOINT INHIBITOR” (OBI Pharma, Inc., priority 2021, published 2024)
Values joined by “and” are separate entries in the source; they are usually repeats but may differ in a detail not shown here. Identical values can stand only once.

Tests used:
Assay type in all cases: in vivo, Mus musculus
[1] = system: PD-L1^+ cells in tumor-infiltrating lymphocytes; test: Example 1: flow cytometry, percentage of PD-L1 cells in TILs; settings: individual animal
Experimental: (§1) Mice were sacrificed by CO2 euthanasia at the end of the study duration, and the connective tissue around tumor was resected. The tumor samples were then removed and weighed. The half tissue was fixed in 10% formaldehyde and then embedded in paraffin; the other half was prepared for the isolation of tumor-infiltrating lymphocytes (TILs).
(§2) The half of mouse tumors were dissected into smaller fragments using scalpels and then digested with a cocktail of collagenase, DNase I, and Hyaluronidase (Collagenase #C5138, DNase I #D5025, Hyaluronidase #H6254, SigmaAldrich) for at least 2 hours.
(§3) Cells were stained with the fluorescently conjugated surface antibodies and incubated for 30 minutes at 4° C., and then resuspended in staining buffer for flow cytometric analysis. Flow cytometry was done using a Navios EX Flow Cytometer (Beckman Coulter). Data were analyzed using the Kaluza Analysis Software (Beckman Coulter).

[2] = system: NK cells in tumor-infiltrating lymphocytes; test: Example 1: flow cytometry, percentage of NK cells in TILs; settings: individual mice
Experimental: as §1, §2, §3

[3] = Example 1: body weight and mortality of HepG2 tumor bearing humanized mice; settings: for Body Weight, Mean: OBI-3424 1 mg/kg IV, antibody 10 mg/kg IP (20 from Day 15)
Experimental: (§4) Each group contains five mice. The human hepatocellular carcinoma cell line HepG2 were subcutaneously inoculated to the advanced immune deficiency mice. Total of 30 mice were included in this study.
(§5) 3.1. […] The injection was performed using insulin syringe with the dosage of 10 mg/kg (Dosage of injection was changed to 20 mg/kg from Day 15) and injection volume of 10 mL/kg. […] The reference item was administered for G1. The procedure followed the standards of sample administration.
(§6) 3.2. The test item anti-hPD-L1 antibody or reference items were intraperitoneally injected to the mice on Day 8 after the inoculation of tumor cells. The injection was performed using insulin syringe with the dosage of 10 mg/kg (Dosage of injection was changed to 20 mg/kg from Day 15) and injection volume of 10 mL/kg. The test item anti-hPD-L1 was continuously administered on Day 8, 11, 15, 18, 22, 25, 29 and 32 for G4 and G6. The reference item was administered for G1. The procedure followed the standards of sample administration.
(§7) 3.3. […] The injection was performed using insulin syringe with the dosage of 1 mg/kg and injection volume of 5 mL/kg. […] The reference item was administered for G1. The procedure followed the standards of sample administration.
The measurement was performed from the next day of the inoculation. The animal body weights were measured and recorded twice per week.

[4] = system: CD8^+ cytotoxic T cells (CTL) in tumor-infiltrating lymphocytes; test: Example 1: flow cytometry, percentage of CTL cells in TILs
Experimental: as §1, §2, §3

[5] = system: CD4^+ T helper cells in tumor-infiltrating lymphocytes; test: Example 1: flow cytometry, percentage of TH cells in TILs; settings: individual mice
Experimental: as §1, §2, §3

[6] = system: HepG2 tumor; test: Example 1: tumor volume, tumor weight and TGI in HepG2 tumor bearing humanized mice
Experimental: as §4
2.2. […] The subcutaneous injection volume was […].
as §5, §6, §7
The measurement was performed from the next day of the inoculation. The tumor volumes were measured and recorded twice a week (Mon., Thur.). Tumor volume was calculated by ellipsoid equation according to the records ((major axis×minor axis×minor axis)×(π/6)).
Tumor volumes were used to calculate tumor growth inhibition (TGI) rates according to the following formula: TGI (%)=[1−(Ti−T0)/(Ci−C0)]×100, where Ti and Ci indicate the mean tumor volume in the treatment groups and vehicle group at the end of the experiment (Day 35). Whereas, T0 and C0 indicate the mean tumor volumes in the treatment group and vehicle group at the beginning of the experiment (Day 1).
as §1

[7] = TILs, flow cytometer, individual mice
[8] = TILs, gate CD45^+CD8^+ cells, individual mice

anti-hPD-L1: Anti-Human PD-L1 antibody, Avelumab
CD45^+ cells Cell count (×10^6) [1]: 2.97 ×10^6 and 7.12 ×10^6 and 3.71 ×10^6 and 1.64 ×10^6
CD45^+ cells Gated % [1]: 34.93% and 47.08% and 31.41% and 28.59%
CD45^+ cells Total % [1]: 24.35% and 32.38% and 20.95% and 22.77%
Total PD-L1^+ cells (PD-L1^+) Cell count (×10^5) [1]: 1.35 ×10^5 and 3.98 ×10^5 and 15.58 ×10^5 and 12.17 ×10^5
Total PD-L1^+ cells (PD-L1^+), Total % [1]: 1.11% and 1.81% and 8.80% and 16.86%
Total PD-L1^+ cells (PD-L1^+), Total cells Gated % [1]: 1.43% and 2.38% and 11.79% and 19.02%
Total cells Cell count (×10^6) [1]: 9.42 ×10^6 and 16.72 ×10^6 and 13.21 ×10^6 and 6.40 ×10^6
Total cells Gated % [1]: 77.18% and 75.98% and 74.62% and 88.63%
Total cells Total % [1]: 77.18% and 75.98% and 74.62% and 88.63%
CD16^+ NK cells (CD45^+CD56^+ CD16^+) Total % ([2]; flow cytometer): 0.44% and 0.80% and 0.62% and 0.48%
NK cells (CD45^+CD56^+) Total % ([2]; flow cytometer): 1.67% and 2.61% and 1.42% and 1.80%
PD-1^+ NK cells (CD45^+CD56^+PD-1^+) Total % ([2]; flow cytometer): 2.28% (2×) and 2.10% and 1.78%
NK cells (CD45^+CD56^+) CD45^+ Gated % ([2]; gate CD45^+ cells): 9.51% and 10.84% and 12.49% and 8.78%
CD16^+ NK cells (CD45^+CD56^+ CD16^+) NK Gated % ([2]; gate CD45^+CD56^+ cells): 26.13% and 30.65% and 43.46% and 26.39%
PD-1^+ NK cells (CD45^+CD56^+PD-1^+) NK Gated % ([2]; gate CD45^+CD56^+ cells): 99.56% and 97.23% and 88.77% and 91.52%
CD16^+ NK cells (CD45^+CD56^+ CD16^+) Cell count [2]: 0.54 ×10^5 and 1.76 ×10^5 and 1.10 ×10^5 and 0.35 ×10^5
NK cells (CD45^+CD56^+) Cell count [2]: 2.04 ×10^5 and 5.74 ×10^5 and 2.51 ×10^5 and 1.30 ×10^5
PD-1^+ NK cells (CD45^+CD56^+PD-1^+) Cell count [2]: 2.78 ×10^5 and 5.02 ×10^5 and 3.72 ×10^5 and 1.29 ×10^5
Body Weight, Mean ([3]; Day 0, group mean): 22.87 g
Body Weight, Mean ([3]; Day 1, group mean): 22.73 g
Body Weight, Mean ([3]; Day 4, group mean): 23.32 g
Body Weight, Mean ([3]; Day 7, group mean): 23.48 g
Body Weight, Mean ([3]; Day 11, group mean): 24.17 g
Body Weight, Mean ([3]; Day 14, group mean): 23.74 g
Body Weight, Mean ([3]; Day 18, group mean): 23.56 g
Body Weight, Mean ([3]; Day 21, group mean): 23.37 g
Body Weight, Mean ([3]; Day 25, group mean): 23.70 g
Body Weight, Mean ([3]; Day 28, group mean): 23.57 g
Body Weight, Mean ([3]; Day 32, group mean): 22.55 g
Body Weight, Mean ([3]; Day 35, group mean): 23.35 g
mortality ([3]; one mouse (MI052) of G4): found dead on Day 34
CD8^+ cytotoxic T cells (CTL) population in tumors compared with vehicle (in words) ([4]; Example 1, TILs at sacrifice, flow cytometry): not observed
CD25^+ CTL cells (CD45^+CD8^+ CD25^+) Total % [4, 7]: 0.27% and 0.30% and 0.21% and 0.63%
CTL cells (CD45^+CD8^+) Total % [4, 7]: 14.00% and 18.51% and 11.85% and 16.01%
PD-1^+ CTL cells (CD45^+CD8^+ PD-1^+) Total % [4, 7]: 17.16% and 16.84% and 12.16% and 16.68%
CTL cells (CD45^+CD8^+) CD45^+ Gated % ([4]; TILs, gate CD45^+ cells, individual mice): 57.51% and 57.17% and 56.56% and 70.33%
CD25^+ CTL cells (CD45^+CD8^+ CD25^+) CTL Gated % [4, 8]: 1.93% and 1.59% and 1.77% and 3.90%
PD-1^+ CTL cells (CD45^+CD8^+ PD-1^+) CTL Gated % [4, 8]: 97.44% and 88.98% and 94.63% and 98.61%
CD25^+ CTL cells (CD45^+CD8^+ CD25^+) Cell count ([4]; TILs, individual mice): 0.33 ×10^5 and 0.66 ×10^5 and 0.37 ×10^5 and 0.45 ×10^5
CTL cells (CD45^+CD8^+) Cell count ([4]; TILs, individual mice): 17.08 ×10^5 and 40.72 ×10^5 and 20.97 ×10^5 and 11.56 ×10^5
PD-1^+ CTL cells (CD45^+CD8^+ PD-1^+) Cell count ([4]; TILs, individual mice): 20.94 ×10^5 and 37.05 ×10^5 and 21.52 ×10^5 and 12.04 ×10^5
CD25^+ TH cells (CD45^+CD4^+ CD25^+) Total % ([5]; flow cytometer): 1.19% and 1.34% and 1.01% and 1.14%
PD-1^+ TH cells (CD45^+CD4^+ PD-1^+) Total % ([5]; flow cytometer): 10.85% and 11.67% and 6.66% and 15.38%
TH cells (CD45^+CD4^+) Total % ([5]; flow cytometer): 9.82% and 12.42% and 6.81% and 15.92%
TH cells (CD45^+CD4^+) CD45^+ Gated % ([5]; gate CD45^+ cells): 40.34% and 38.36% and 32.51% and 69.93%
CD25^+ TH cells (CD45^+CD4^+CD25^+) TH Gated % ([5]; gate CD45^+CD4^+ cells): 12.12% and 10.75% and 14.76% and 7.16%
PD-1^+ TH cells (CD45^+CD4^+ PD-1^+) TH Gated % ([5]; gate CD45^+CD4^+ cells): 99.40% (2×) and 99.02% and 99.19%
CD25^+ TH cells (CD45^+CD4^+ CD25^+) Cell count [5]: 1.45 ×10^5 and 2.95 ×10^5 and 1.79 ×10^5 and 0.82 ×10^5
PD-1^+ TH cells (CD45^+CD4^+ PD-1^+) Cell count [5]: 13.24 ×10^5 and 25.67 ×10^5 and 11.79 ×10^5 and 11.10 ×10^5
TH cells (CD45^+CD4^+) Cell count [5]: 11.98 ×10^5 and 27.32 ×10^5 and 12.05 ×10^5 and 11.49 ×10^5
Tumor volume, Mean ([6]; D 1, group mean, OBI-3424 1 mg/kg IV, antibody 10 mg/kg IP (20 from Day 15)): 409.71 mm^3
Tumor volume, Mean ([6]; D 4, group mean, OBI-3424 1 mg/kg IV, antibody 10 mg/kg IP (20 from Day 15)): 316.07 mm^3
Tumor volume, Mean ([6]; D 7, group mean, OBI-3424 1 mg/kg IV, antibody 10 mg/kg IP (20 from Day 15)): 304.50 mm^3
Tumor volume, Mean ([6]; D 11, group mean, OBI-3424 1 mg/kg IV, antibody 10 mg/kg IP (20 from Day 15)): 342.83 mm^3
Tumor volume, Mean ([6]; D 14, group mean, OBI-3424 1 mg/kg IV, antibody 10 mg/kg IP (20 from Day 15)): 371.47 mm^3
Tumor volume, Mean ([6]; D 18, group mean, OBI-3424 1 mg/kg IV, antibody 10 mg/kg IP (20 from Day 15)): 491.18 mm^3
Tumor volume, Mean ([6]; D 21, group mean, OBI-3424 1 mg/kg IV, antibody 10 mg/kg IP (20 from Day 15)): 675.33 mm^3
Tumor volume, Mean ([6]; D 25, group mean, OBI-3424 1 mg/kg IV, antibody 10 mg/kg IP (20 from Day 15)): 812.95 mm^3
Tumor volume, Mean ([6]; D 28, group mean, OBI-3424 1 mg/kg IV, antibody 10 mg/kg IP (20 from Day 15)): 866.97 mm^3
Tumor volume, Mean ([6]; D 32, group mean, OBI-3424 1 mg/kg IV, antibody 10 mg/kg IP (20 from Day 15)): 1155.84 mm^3
Tumor volume, Mean ([6]; D 35, group mean (mean±SEM), OBI-3424 1 mg/kg IV, antibody 10 mg/kg IP (20 from Day 15)): 1148.64±193.00 mm^3 and 1148.64 mm^3
Tumor weight, Mean ([6]; D 35, group mean, OBI-3424 1 mg/kg IV, antibody 10 mg/kg IP (20 from Day 15)): *1010.73 mg
mean tumor volume compared with vehicle (in words) ([6]; Day 35, vs vehicle (G1), Student's t-test): No statistically significant difference
effect on tumor growth (conclusion in words) ([6]; HepG2 humanized mouse model): no effect on tumor growth
TGI ([6]; from mean tumor volumes Day 35 vs Day 1, relative to vehicle, OBI-3424 1 mg/kg IV, antibody 10 mg/kg IP (20 from Day 15)): 35.60%
